Patent publication US10738281B2, “Reprogramming cells” (The Scripps Research Institute, priority 2010, dated 2020)

Key:
[1] = tested on: Human Umbilical Vein Endothelial Cells (HUVECs); assay: Reprogramming of four factor-transduced HUVECs using metabolism modulating compounds; conditions: four factor (Klf, Sox, Myc, Oct)-transduced HUVECs, 20,000 cells per well, three weeks; DNP 1 μM, NOG 1 μM, QC 1 μM, OA 10 μM, F2,6P 10 mM
Procedure: (§1) Four factor (Klf, Sox, Myc, and Oct)-transduced HUVECs were seeded at a density of 20,000 transduced cells per well, treated with metabolism modulating compounds for three weeks and TRA-1-81 positive colonies were counted. F2,6P, 10 mM Fructose 2,6-bisphosphate; F6P, 10 mM Fructose 6-phosphate; 6-AN, 10 μM 6-aminonicotinamide; OA, 10 μM oxalate; DNP, 1 μM 2,4-dinitrophenol; NOG, 1 μM N-oxalylglycine; QC, 1 μM Quercetin; 2-HA, 10 μM 2-Hydroxyglutaric acid; NA, 10 μM nicotinic acid; DMSO was used as a control.

[2] = tested on: Neonatal Human Epidermal Keratinocytes (NHEKs); assay: Reprogramming of transduced NHEKs to iPSCs, TRA-1-81 positive colonies; conditions: for reprogramming of NHEKs, TRA-1-81 positive colonies (in words): three factor (Klf, Sox, Oct)-transduced NHEKs, 100,000 cells per well, four weeks, 2-DG 10 mM
Procedure: The culture was split by Accutase (Millipore) and treated with 1 μM Thiazovivin (Stemgent) in the first day after splitting.

[3] = tested on: GLUT1, HK2, PFK1 and LDHA; assay: Expression of key glycolytic genes after treatment; conditions: PS48 treatment
Procedure: as §1

NHEKs = assay: Lactate production in the medium as index of glycolysis (Lactate Assay Kit); conditions: NHEKs treated 8 d with PS48, PS48 and UCN-01, or PS48 and 2-DG
Procedure: as §1

O=c1c(O)c(-c2ccc(O)c(O)c2)oc2cc(O)cc(O)c12 [Quercetin, 3,3′,4′,5,7-pentahydroxyflavone]
effect on reprogramming, TRA-1-81 positive colonies (in words) [1]: corresponding consistent effects on reprogramming

CCCC(=O)[O-].[Na+] [NaB, sodium butyrate]
generation of iPSCs under OK condition (in words) ([2]; NHEKs, OCT4 + KLF4, 0.25 mM NaB compared with 0.5 mM VPA): much more reliable and efficient than the previously reported 0.5 mM VPA

O=P(O)(O)OC[C@H]1O[C@@](CO)(OP(=O)(O)O)[C@@H](O)[C@@H]1O [Fructose 2,6-bisphosphate]
effect on reprogramming, TRA-1-81 positive colonies (in words) [1]: corresponding consistent effects on reprogramming

O=C(O)/C=C(/CCc1ccc(Cl)cc1)c1ccccc1 [PS48, (Z)-5-(4-Chlorophenyl)-3-phenylpent-2-enoic acid]
expression of key glycolytic genes GLUT1, HK2, PFK1 and LDHA (in words) [3]: up-regulated | enhancement of reprogramming efficiency ([2]; NHEKs transduced with OK (OCT4 + KLF4), treated with 0.5 μM PD0325901 and 0.5 μM A-83-01): about fifteen | reprogramming of NHEKs, TRA-1-81 positive colonies (in words) [2]: enhanced reprogramming | glycolysis, lactate production in the medium (in words) (NHEKs): facilitated/activated a metabolic switch to glycolysis

O=CC[C@@H](O)[C@H](O)[C@H](O)CO [2-Deoxy-D-glucose]
reprogramming of NHEKs, TRA-1-81 positive colonies (in words) [2]: inhibited reprogramming process | glycolysis, lactate production in the medium (in words) (NHEKs): inhibited glycolysis

O=C(O)C(=O)O [oxalate]
effect on reprogramming, TRA-1-81 positive colonies (in words) [1]: inhibit reprogramming

O=C(O)CNC(=O)C(=O)O [N-oxalylglycine]
effect on reprogramming, TRA-1-81 positive colonies (in words) [1]: enhance reprogramming

O=[N+]([O-])c1ccc(O)c([N+](=O)[O-])c1 [2,4-dinitrophenol]
effect on reprogramming, TRA-1-81 positive colonies (in words) [1]: enhance reprogramming

CN[C@@H]1C[C@H]2O[C@@](C)([C@@H]1OC)n1c3ccccc3c3c4c(c5c6ccccc6n2c5c31)C(=O)N[C@@H]4O [UCN-01]
reprogramming of NHEKs, TRA-1-81 positive colonies (in words) [2]: inhibited reprogramming process | glycolysis, lactate production in the medium (in words) (NHEKs): inhibited glycolysis
